Experimental data taken from patent publication US10344025B2, “GLS1 inhibitors for treating disease” (Board of Regents, The University of Texas System, priority 2014, dated 2019).

How the values were obtained:
[1] = target: purified recombinant human GAC (GLS1) (Homo sapiens (Human), UniProt O94925); assay: GLS1 Enzymatic Activity Assay (dual-coupled enzymatic assay, resorufin/Amplex UltraRed readout); assay type: biochemical;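 note: glutamate from GAC coupled via glutamate oxidase and peroxidase to resorufin, read as fluorescence (ex 530, em 590 nm) kinetically or at 20 min, four-parameter logistic IC50 fit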
purified recombinant human GAC (GLS1), sequence (O94925 other isoform, or with tags, fused parts or gaps): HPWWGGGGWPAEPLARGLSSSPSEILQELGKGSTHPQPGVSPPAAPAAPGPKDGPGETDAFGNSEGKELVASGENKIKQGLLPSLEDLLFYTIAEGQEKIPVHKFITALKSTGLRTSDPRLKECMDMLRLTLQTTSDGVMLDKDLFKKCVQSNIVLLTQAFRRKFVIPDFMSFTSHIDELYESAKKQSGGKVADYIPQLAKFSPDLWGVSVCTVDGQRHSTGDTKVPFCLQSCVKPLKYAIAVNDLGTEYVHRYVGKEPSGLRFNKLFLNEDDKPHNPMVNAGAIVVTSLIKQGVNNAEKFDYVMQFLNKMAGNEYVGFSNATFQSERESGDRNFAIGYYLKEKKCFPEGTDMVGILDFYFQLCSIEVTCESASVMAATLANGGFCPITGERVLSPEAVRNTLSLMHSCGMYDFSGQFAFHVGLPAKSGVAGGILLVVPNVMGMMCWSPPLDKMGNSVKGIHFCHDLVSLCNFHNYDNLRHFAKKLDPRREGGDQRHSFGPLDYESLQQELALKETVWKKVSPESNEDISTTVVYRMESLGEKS

[2] = system: A549 cells; assay: Proliferation Assay (A549 viability, Cell Titer Fluor, 72 hours); assay type: cell-based; details: Homo sapiens, A549, 72 h
Summary of the method: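 Cell Titer Fluor fluorescence after 72 h compound treatment (0.5% DMSO, 37 °C, 5% CO2) of A549 cells plated 24 h earlier at 1000/well. Four-parameter logistic fitting gave IC50.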

CC(=O)Nc1nnc(CCC(F)Cn2cc(C(=O)NCc3cc(C(F)(F)F)ccn3)nn2)s1 (centres unmarked) [Example 567, 1-(4-(5-acetamido-1,3,4-thiadiazol-2-yl)-2-fluorobutyl)-N-((4-(trifluoromethyl)pyridin-2-yl)methyl)-1H-1,2,3-triazole-4-carboxamide]
IC50 [1]: < 100 nM
EC50 [2]: 100 to 500 nM

O=C(CC1CCCCC1)Nc1cn(CCCCn2cc(C(=O)NCc3cccc(OC(F)(F)F)c3)nn2)nn1 [Example 296, 1-{4-[4-(2-cyclohexylacetamido)-1H-1,2,3-triazol-1-yl]butyl}-N-{[3-(trifluoromethoxy)phenyl]methyl}-1H-1,2,3-triazole-4-carboxamide]
IC50 [1]: < 100 nM
EC50 [2]: < 100 nM

CNC(=O)c1cn(C[C@H](F)CCc2ccc(NC(=O)Cc3cn(-c4cccc(OC(F)(F)F)c4)cn3)nn2)nn1 [Example 270, (R)-1-(2-fluoro-4-(6-(2-(1-(3-(trifluoromethoxy)phenyl)-1H-imidazol-4-yl)acetamido)pyridazin-3-yl)butyl)-N-methyl-1H-1,2,3-triazole-4-carboxamide]
IC50 [1]: < 100 nM
EC50 [2]: < 100 nM

O=C(CN1CC(F)(F)C1)Nc1cn(CC(F)CCn2cc(C(=O)NCc3cccc(OC(F)(F)F)c3)nn2)nn1 (centres unmarked) [Example 391, 1-(4-{4-[2-(3,3-difluoroazetidin-1-yl)acetamido]-1H-1,2,3-triazol-1-yl}-3-fluorobutyl)-N-{[3-(trifluoromethoxy)phenyl]methyl}-1H-1,2,3-triazole-4-carboxamide]
IC50 [1]: < 100 nM
EC50 [2]: 100 to 500 nM

O=C(NCc1ccc(C(F)(F)F)nc1)c1cn(CCC(F)Cn2cc(C(=O)NCc3cccc(OC(F)(F)F)c3)nn2)nn1 (centres unmarked) [Example 437, 1-{3-fluoro-4-[4-({[3-(trifluoromethoxy)phenyl]methyl}carbamoyl)-1H-1,2,3-triazol-1-yl]butyl}-N-{[6-(trifluoromethyl)pyridin-3-yl]methyl}-1H-1,2,3-triazole-4-carboxamide]
IC50 [1]: < 100 nM
EC50 [2]: < 100 nM

O=C(NCc1cc(OC(F)(F)F)ccc1F)c1cn(CCC(F)Cn2cc(C(=O)N[C@H](CO)c3ccccc3)nn2)nn1 (stereo partly drawn) [Example 452, 1-{2-fluoro-4-[4-({[2-fluoro-5-(trifluoromethoxy)phenyl]methyl}carbamoyl)-1H-1,2,3-triazol-1-yl]butyl}-N-[(1S)-2-hydroxy-1-phenylethyl]-1H-1,2,3-triazole-4-carboxamide]
IC50 [1]: < 100 nM
EC50 [2]: 100 to 500 nM

CC(C)(O)c1ccc(CNC(=O)c2cn(CCCCn3cc(C(=O)NCc4cccc(C5CC5)c4)nn3)nn2)cn1 [Example 123, N-[(3-cyclopropylphenyl)methyl]-1-{4-[4-({[6-(2-hydroxypropan-2-yl)pyridin-3-yl]methyl}carbamoyl)-1H-1,2,3-triazol-1-yl]butyl}-1H-1,2,3-triazole-4-carboxamide]
IC50 [1]: < 100 nM
EC50 [2]: 100 to 500 nM

CNC(=O)c1cn(CCCCc2ccc(NC(=O)CN3CCN(c4cccc(OC(F)(F)F)c4)CC3=O)nn2)nn1 [Example 227, N-methyl-1-(4-(6-(2-(2-oxo-4-(3-(trifluoromethoxy)phenyl)piperazin-1-yl)acetamido)pyridazin-3-yl)butyl)-1H-1,2,3-triazole-4-carboxamide]
IC50 [1]: < 100 nM
EC50 [2]: < 100 nM

O=C(NCc1cncc(C(F)(F)F)c1)c1cn(CCC(F)Cn2cc(C(=O)NCc3cccc(OC(F)(F)F)c3)nn2)nn1 (centres unmarked) [Example 478, 1-{3-fluoro-4-[4-({[3-(trifluoromethoxy)phenyl]methyl}carbamoyl)-1H-1,2,3-triazol-1-yl]butyl}-N-{[5-(trifluoromethyl)pyridin-3-yl]methyl}-1H-1,2,3-triazole-4-carboxamide]
IC50 [1]: < 100 nM
EC50 [2]: < 100 nM

NC(=O)c1nnc(CCC(F)Cn2cc(C(=O)NCc3cccc(OC(F)(F)F)c3)nn2)s1 (centres unmarked) [Example 521, 5-{3-fluoro-4-[4-({[3-(trifluoromethoxy)phenyl]methyl}carbamoyl)-1H-1,2,3-triazol-1-yl]butyl}-1,3,4-thiadiazole-2-carboxamide]
IC50 [1]: 100 to 500 nM
EC50 [2]: 100 to 500 nM
